Laboratory results reported in paper PMC5008855 (Organic & biomolecular chemistry, 2016).

Biological target: T1, human COX-2 enzyme (cyclooxygenase II) (Homo sapiens, UniProt P35354)
T1 sequence (P35354 18-604): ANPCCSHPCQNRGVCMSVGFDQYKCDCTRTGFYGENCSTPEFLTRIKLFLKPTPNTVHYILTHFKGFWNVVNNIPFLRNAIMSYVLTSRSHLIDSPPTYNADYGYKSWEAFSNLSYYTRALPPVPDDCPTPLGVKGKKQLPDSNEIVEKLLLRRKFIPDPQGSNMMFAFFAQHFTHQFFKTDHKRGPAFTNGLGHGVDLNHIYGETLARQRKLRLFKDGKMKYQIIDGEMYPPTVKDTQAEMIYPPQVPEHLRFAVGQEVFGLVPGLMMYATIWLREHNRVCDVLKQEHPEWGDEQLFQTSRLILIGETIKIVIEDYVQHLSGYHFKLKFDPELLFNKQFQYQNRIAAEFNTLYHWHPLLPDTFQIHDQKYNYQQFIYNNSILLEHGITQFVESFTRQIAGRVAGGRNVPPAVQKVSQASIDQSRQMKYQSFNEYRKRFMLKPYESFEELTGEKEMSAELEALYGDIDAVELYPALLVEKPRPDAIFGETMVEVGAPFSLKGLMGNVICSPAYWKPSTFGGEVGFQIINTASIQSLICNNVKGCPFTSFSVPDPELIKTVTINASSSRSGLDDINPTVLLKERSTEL
Assay: human COX-2 activity inhibition assay
Format: biochemical

Work on homoneoprofen [compound 2] yielded an IC50 of 2000 nM.
